Converted amounts (≈) assume the structure as drawn. Read-outs that look alike come from different tables or passages of the source.
Tests used:
[1] = system: Pseudomonas aeruginosa E2; test: MIC against Pseudomonas aeruginosa E2; type: cell-based
[2] = system: Pseudomonas aeruginosa C73-2; test: In vitro antibacterial activity (MIC); type: cell-based; conditions: C732; Pseudomonas aeruginosa C73-2; in vitro; sodium salts; read-out: MIC
[3] = Serum concentration and accumulative urinary excretion in rabbit; conditions: in vivo, im; for dose excreted at 6 h: 20 mg/kg; for concentration at 0.5 h: 20 mg/kg intramuscular, after 30 mins., sodium salts, Sarcina lutea assay
Experimental: (§1) Given below are the test results of in vitro antibacterial activity studies, serum concentrations and accumulative urinary excretions in rabbits and the protecting effects in mice, of some representative compounds of the invention.
(§2) The compounds used in the tests are shown in the following Table 1, but all of these compounds are in the form of the sodium salt.
Each of the test compounds (20 mg/kg) was intramuscularly administered to one group of 3 rabbits, and the amounts of antibiotics were measured by a conventional method, using Sarcina lutea.

[4] = system: Escherichia coli C 73-4; test: In vitro antibacterial activity (MIC); type: cell-based; conditions: C734; Escherichia coli C 73-4; in vitro; sodium salts; read-out: MIC
[5] = system: Pseudomonas strain C73-63; test: In vitro antibacterial activity (MIC); type: cell-based; conditions: C7363; Pseudomonas strain C73-63; in vitro; sodium salts; read-out: MIC
[6] = system: Bacillus substilis ATCC 6633; test: In vitro antibacterial activity (MIC); type: cell-based; conditions: ATCC6633; Bacillus substilis ATCC 6633; in vitro; sodium salts; read-out: MIC
[7] = system: Enterobacter strain C73-17; test: In vitro antibacterial activity (MIC); type: cell-based; conditions: C7317
[8] = system: Klebsilla pneumoniae; test: In vitro antibacterial activity (MIC); type: cell-based
[9] = system: Pseudomonas strain C73-83; test: In vitro antibacterial activity (MIC); type: cell-based; conditions: C7383; Pseudomonas strain C73-83; in vitro; sodium salts; read-out: MIC
From the text: as §1, §2

[10] = system: Salmonella strain C 73-30; test: In vitro antibacterial activity (MIC); type: cell-based; conditions: C7330; Salmonella strain C 73-30; in vitro; sodium salts; read-out: MIC
From the text: as §1, §2

[11] = system: Salmonella strain C73-1; test: In vitro antibacterial activity (MIC); type: cell-based; conditions: C731; Salmonella strain C73-1; in vitro; sodium salts; read-out: MIC
From the text: as §1, §2

[12] = system: Serratia strain No. 1; test: In vitro antibacterial activity (MIC); type: cell-based; conditions: Serratia strain No. 1; in vitro; sodium salts; read-out: MIC
[13] = system: Salmonella enteritidis No. 11; test: In vitro antibacterial activity (MIC); type: cell-based; conditions: Salmonella enterica; Salmonella enteritidis No. 11; in vitro; sodium salts; read-out: MIC
[14] = system: Pseudomonas aerugenosa E 2 strain; test: ED50 in Pseudomonas infection in mice; type: in vivo; conditions: ICR-JCL mouse, male, 20g; P. aerugenosa E 2 3.6 × 10^4 intraperitoneal; compound intramuscular after 2 hrs.; ED50 after 7 days; sodium salts
From the text: as §1, §2
Pseudomonas aerugenosa E 2 strain (3.6 × 10^4) was intraperitonealy injected to each group of 10 of ICR-JCL mouse (male, 20g). After 2 hrs., each of the test compounds was intramuscularly administered to the infected mice and the ED50 values were measured after 7 days.

[15] = system: Proteus morganii kono; test: In vitro antibacterial activity (MIC); type: cell-based; conditions: Morganella morganii; Proteus morganii kono; in vitro; sodium salts; read-out: MIC
[16] = system: Vibrio parahaemolyticus K - 3; test: In vitro antibacterial activity (MIC); type: cell-based; conditions: K3; Vibrio parahaemolyticus K - 3; in vitro; sodium salts; read-out: MIC
[17] = system: Escherichia coli C 73-1; test: In vitro antibacterial activity (MIC); type: cell-based; conditions: C731
[18] = system: Serratia strain No. 2; test: In vitro antibacterial activity (MIC); type: cell-based; conditions: Serratia strain No. 2; in vitro; sodium salts; read-out: MIC
[19] = system: Vibrio parahaemolyticus K - 5; test: In vitro antibacterial activity (MIC); type: cell-based; conditions: K5; Vibrio parahaemolyticus K - 5; in vitro; sodium salts; read-out: MIC
[20] = system: Proteus morganii C73-23; test: In vitro antibacterial activity (MIC); type: cell-based; conditions: Morganella morganii, C7323; Proteus morganii C73-23; in vitro; sodium salts; read-out: MIC
[21] = system: Shigella dysenteriae shigae; test: microbe, parasite or virus in culture; type: cell-based
[22] = system: Staphylococcus aureus FDA 209NIH, P-J C-1; test: In vitro antibacterial activity (MIC); type: cell-based; conditions: Staphylococcus aureus FDA 209NIH, P-J C-1; in vitro; sodium salts; read-out: MIC
[23] = system: Streptococcus faecalis ATCC 8043; test: In vitro antibacterial activity (MIC); type: cell-based; conditions: Enterococcus faecalis, ATCC8043; Streptococcus faecalis ATCC 8043; in vitro; sodium salts; read-out: MIC
[24] = Enterobacter strain C73-17, in vitro, sodium salts, read-out: MIC
[25] = Klebsilla pneumoniae, in vitro, sodium salts, read-out: MIC
[26] = Escherichia coli C 73-1, in vitro, sodium salts, read-out: MIC

Structure (SMILES)	MIC [1] [µg/mL]	MIC [2] [µg/mL]	dose excreted at 6 h [3] [%]	concentration at 0.5 h [3] [ng/mL]	MIC [4] [µg/mL]	MIC [5] [µg/mL]	MIC [6] [µg/mL]	MIC [9] [µg/mL]	MIC [10] [µg/mL]	MIC [11] [µg/mL]	MIC [12] [µg/mL]	MIC [13] [µg/mL]	ED50 in Pseudomonas infection in mice [14] [mg/mouse]	MIC [15] [µg/mL]	MIC [16] [µg/mL]	MIC [18] [µg/mL]	MIC [19] [µg/mL]	MIC [20] [µg/mL]	MIC [21] [µg/mL]	MIC [22] [µg/mL]	also measured
CCN1CCN(C(=O)N[C@@H](C(=O)NC2C(=O)N3C(C(=O)O)=C(CSc4nncs4)CS[C@H]23)c2ccc(OC(=O)CC(C)=O)cc2)C(=O)C1=O (single isomer, unassigned) [Example 9, 7-[D(-)-α-(4-ethyl-2,3-dioxopiperazin-1-yl-carbonylamino)-p-acetoacetoxyphenylacetamido]-3-(1,3,4-thiadiazol-2-yl-thiomethyl)-3-cephem-4-carboxylic acid]	6.25 (≈ 8.54 µM)																				
CCN1CCN(C(=O)N[C@@H](C(=O)NC2C(=O)N3C(C(=O)O)=C(CSc4nncs4)CS[C@H]23)c2ccc(OC(=O)CC(C)=O)c(Cl)c2)C(=O)C1=O (single isomer, unassigned) [Example 10, 7-[D(-)-α-(4-ethyl-2,3-dioxopiperazin-1-yl-carbonylamino)-m-chloro-p-acetoacetoxyphenylacetamido]-3-(1,3,4-thiadiazol-2-yl-thiomethyl)-3-cephem-4-carboxylic acid]	3.13 (≈ 4.08 µM)																				
CCOC(=O)Oc1ccc([C@@H](NC(=O)N2CCN(CC)C(=O)C2=O)C(=O)NC2C(=O)N3C(C(=O)O)=C(CSc4nnc(C)s4)CS[C@H]23)cc1 (single isomer, unassigned) [Example 11, 7-[D(-)-α-(4-ethyl-2,3-dioxopiperazin-1-yl-carbonylamino)-p-ethoxycarbonyloxyphenylacetamido]-3-(5-methyl-1,3,4-thiadiazol-2-yl-thiomethyl)-3-cephem-4-carboxylic acid]	12.5 (≈ 17 µM)																				
CCOC(=O)Oc1ccc([C@@H](NC(=O)N2CCN(CC)C(=O)C2=O)C(=O)NC2C(=O)N3C(C(=O)O)=C(CSc4nnc(C)s4)CS[C@H]23)cc1Cl (single isomer, unassigned) [Example 12, 7-[D(-)-α-(4-ethyl-2,3-dioxopiperazin-1-yl-carbonylamino)-m-chloro-p-ethoxycarbonyloxyphenylacetamido]-3-(5-methyl-1,3,4-thiadiazol-2-yl-thiomethyl)-3-cephem-4-carboxylic acid]	12.5 (≈ 16.3 µM)																				
CCN1CCN(C(=O)N[C@@H](C(=O)NC2C(=O)N3C(C(=O)O)=C(CSc4nncs4)CS[C@H]23)c2ccc(OC(=O)OCC(C)C)cc2)C(=O)C1=O (single isomer, unassigned) [Example 17, 7-[D(-)-α-(4-ethyl-2,3-dioxopiperazin-1-yl-carbonylamino)-p-iso-butoxycarbonyloxyphenylacetamido]-3-(1,3,4-thiadiazol-2-yl-thiomethyl)-3-cephem-4-carboxylic acid]	12.5 (≈ 16.7 µM)																				
CCN1CCN(C(=O)N[C@@H](C(=O)NC2C(=O)N3C(C(=O)O)=C(CSc4nncs4)CS[C@H]23)c2ccc(OC(C)=O)c(Cl)c2)C(=O)C1=O (single isomer, unassigned) [IV, 7-[D(-)-α-(4-ethyl-2,3-dioxopiperazin-1-yl-carbonylamino)-m-chloro-p-acetoxyphenylacetamido]-3-(1,3,4-thiadiazol-2-yl-thiomethyl)-3-cephem-4-carboxylic acid]		3.13	27	34900	6.25	3.13	6.25	25	1.56	1.56	3.13	3.13	1.8	3.13	12.5	3.13	12.5	12.5	0.39 (≈ 0.539 µM)	6.25	MIC [7, 24]: 25 µg/mL; MIC [8, 25]: 0.78 µg/mL; MIC [17, 26]: 6.25 µg/mL; MIC [23]: 1.56 µg/mL
CCOC(=O)Oc1ccc([C@@H](NC(=O)N2CCN(CC)C(=O)C2=O)C(=O)NC2C(=O)N3C(C(=O)O)=C(CSc4nncs4)CS[C@H]23)cc1 (single isomer, unassigned) [V, 7-[D(-)-α-(4-ethyl-2,3-dioxopiperazin-1-yl-carbonylamino)-p-ethoxycarbonyloxyphenylacetamido]-3-(1,3,4-thiadiazol-2-yl-thiomethyl)-3-cephem-4-carboxylic acid]		6.25	24.1	43000	3.13	6.25	0.78	25	1.56	1.56	3.13	0.2	1.0	3.13	6.25	3.13	6.25	12.5	0.78 (≈ 1.08 µM)	0.39	MIC [7, 24]: 3.13 µg/mL; MIC [8, 25]: 0.39 µg/mL; MIC [17, 26]: 1.56 µg/mL; MIC [23]: 12.5 µg/mL
CCOC(=O)Oc1ccc([C@@H](NC(=O)N2CCN(CC)C(=O)C2=O)C(=O)NC2C(=O)N3C(C(=O)O)=C(CSc4nncs4)CS[C@H]23)cc1Cl (single isomer, unassigned) [VI, 7-[D(-)-α-(4-ethyl-2,3-dioxopiperazin-1-yl-carbonylamino)-m-chloro-p-ethoxycarbonyloxyphenylacetamido]-3-(1,3,4-thiadiazol-2-yl-thiomethyl)-3-cephem-4-carboxylic acid]		12.5	17.4	19400	3.13	3.13	0.39	12.5	3.13	3.13	6.25	0.2	0.8	3.13	12.5	6.25	12.5	12.5	1.56 (≈ 2.07 µM)	0.39	MIC ([7]; Enterobacter): 1.56 µg/mL (≈ 2.07 µM); MIC [8]: 1.56 µg/mL (≈ 2.07 µM); MIC ([17]; Escherichia coli): 1.56 µg/mL (≈ 2.07 µM); MIC [23]: 6.25 µg/mL

— patent US4103008A, “7[2(2,3 Dioxopiperazin-1-yl-carbonylamino)substituted 2 phenylacetamido]-3-2'-thiadiazolyl cephalosporanic acid derivatives” (priority 1976, dated 1978)
